Source: patent US11370794B2, “Toll-like receptor antagonist compounds and methods of use” (Dynavax Technologies Corporation, priority 2016, dated 2022)
Like-named read-outs stand apart in the source and are kept apart here.

Experiments:
human TLR9 = molecular target: T1, human TLR9 (Homo sapiens, UniProt Q9NR96); test: Inhibition of human TLR9 in human B cells (IL-6 ELISA); format: cell-based; details: for IC50: human B cells, agonist 1018 ISS 1 μM, IL-6 readout, 48 hours, range about 0.01 to 10 μM, read-out: Human TLR9 IC50
T1 construct: endogenous in cells; host or cells: primary human B cells (CD19 microbeads) from buffy coats of healthy donors
T1 sequence (Q9NR96 26-1032): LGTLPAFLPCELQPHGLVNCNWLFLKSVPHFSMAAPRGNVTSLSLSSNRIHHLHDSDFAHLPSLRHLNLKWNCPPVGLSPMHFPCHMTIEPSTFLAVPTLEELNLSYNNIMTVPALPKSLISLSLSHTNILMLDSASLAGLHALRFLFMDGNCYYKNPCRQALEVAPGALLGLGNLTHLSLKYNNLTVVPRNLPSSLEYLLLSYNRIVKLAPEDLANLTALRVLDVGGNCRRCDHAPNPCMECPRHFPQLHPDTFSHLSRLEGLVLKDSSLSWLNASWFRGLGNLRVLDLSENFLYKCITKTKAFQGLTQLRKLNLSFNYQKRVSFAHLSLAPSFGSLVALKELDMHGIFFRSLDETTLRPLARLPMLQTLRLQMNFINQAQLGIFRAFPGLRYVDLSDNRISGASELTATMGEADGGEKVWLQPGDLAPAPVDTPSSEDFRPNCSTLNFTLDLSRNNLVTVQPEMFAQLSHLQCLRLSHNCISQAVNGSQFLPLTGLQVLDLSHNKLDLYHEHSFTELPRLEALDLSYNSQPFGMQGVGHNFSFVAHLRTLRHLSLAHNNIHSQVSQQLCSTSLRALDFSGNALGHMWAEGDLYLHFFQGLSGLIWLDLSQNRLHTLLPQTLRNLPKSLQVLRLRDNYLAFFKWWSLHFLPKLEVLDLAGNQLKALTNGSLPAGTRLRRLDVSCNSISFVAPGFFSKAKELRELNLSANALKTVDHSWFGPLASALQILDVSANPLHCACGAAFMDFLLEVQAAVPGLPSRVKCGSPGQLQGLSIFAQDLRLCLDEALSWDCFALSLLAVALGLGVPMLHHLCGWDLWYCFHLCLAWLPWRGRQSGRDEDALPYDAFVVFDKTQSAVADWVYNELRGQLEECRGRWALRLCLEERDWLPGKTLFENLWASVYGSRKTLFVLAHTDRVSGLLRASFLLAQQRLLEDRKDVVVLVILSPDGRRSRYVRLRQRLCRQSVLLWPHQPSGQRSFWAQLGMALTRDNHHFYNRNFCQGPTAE
Procedure, shortened: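 Primary human B cells (CD19-isolated from donor buffy coats), ~300,000 per well, treated with compound (about 0.01–10 μM, some 0.001–30 μM) then 1 μM CpG oligonucleotide 1018 ISS. After 48 hours at 37° C, supernatant IL-6 measured by ELISA; IC50 from concentration-response of TLR9-dependent activity.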

human TLR8 = molecular target: T2, human TLR8 (Homo sapiens, UniProt Q9NR97); test: Inhibition of human TLR8 in human monocytes (TNF-alpha / IL-1 beta ELISA); format: cell-based; details: for IC50: human monocytes, agonist ORN8L 100 μg/mL, 24 hours
T2 construct: endogenous in cells; host or cells: primary human monocytes (CD14 microbeads) from buffy coats of healthy donors
T2 sequence (Q9NR97 27-1041): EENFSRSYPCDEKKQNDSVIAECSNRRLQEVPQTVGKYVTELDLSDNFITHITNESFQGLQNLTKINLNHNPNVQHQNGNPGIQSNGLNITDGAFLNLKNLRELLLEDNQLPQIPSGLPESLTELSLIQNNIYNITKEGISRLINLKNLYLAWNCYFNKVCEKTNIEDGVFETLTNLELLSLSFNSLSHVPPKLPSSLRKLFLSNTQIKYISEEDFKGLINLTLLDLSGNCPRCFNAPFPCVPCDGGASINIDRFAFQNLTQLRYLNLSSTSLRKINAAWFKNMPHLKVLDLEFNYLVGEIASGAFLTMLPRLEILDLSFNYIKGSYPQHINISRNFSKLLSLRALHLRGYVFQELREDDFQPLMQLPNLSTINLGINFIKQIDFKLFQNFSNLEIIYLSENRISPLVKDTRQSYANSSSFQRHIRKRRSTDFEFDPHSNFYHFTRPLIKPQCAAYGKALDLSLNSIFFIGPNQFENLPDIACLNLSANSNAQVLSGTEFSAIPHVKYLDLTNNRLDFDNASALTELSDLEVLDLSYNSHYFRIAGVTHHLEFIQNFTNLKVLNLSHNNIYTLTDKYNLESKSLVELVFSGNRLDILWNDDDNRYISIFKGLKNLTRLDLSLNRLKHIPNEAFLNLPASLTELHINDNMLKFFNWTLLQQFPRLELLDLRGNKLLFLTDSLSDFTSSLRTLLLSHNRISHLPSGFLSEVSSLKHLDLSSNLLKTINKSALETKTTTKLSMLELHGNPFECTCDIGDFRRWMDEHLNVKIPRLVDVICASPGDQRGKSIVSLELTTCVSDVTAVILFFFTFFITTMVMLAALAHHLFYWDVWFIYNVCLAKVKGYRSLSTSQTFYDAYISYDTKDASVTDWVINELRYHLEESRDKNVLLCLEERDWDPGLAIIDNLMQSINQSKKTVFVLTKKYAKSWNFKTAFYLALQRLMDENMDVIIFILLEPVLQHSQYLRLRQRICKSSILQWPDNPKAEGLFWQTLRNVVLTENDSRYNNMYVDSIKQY
Procedure, shortened: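 Primary human monocytes from donor buffy coats (~200,000 cells/well) given serially diluted compound, then ORN8L RNA oligonucleotide agonist at 100 μg/mL final. After 24 h at 37 °C, supernatant TNF-alpha and/or IL-1 beta measured by ELISA; IC50 from the concentration-response of cytokine release.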

[1] = TNF-alpha readout, read-out: Human TLR8 IC50 TNF-a
[2] = IL-1 beta readout, read-out: Human TLR8 IC50 IL-1b
[3] = summary statement of the description

SMILES | IC50 (human TLR9) [nM] | IC50 (human TLR8; [1]) [nM] | IC50 (human TLR8; [2]) [nM] | inhibits TLR9-dependent responses (in words) (human TLR9; [3]) | inhibits TLR8-dependent responses (in words) (human TLR8; [3])
Cc1ccc(-n2nc3c(N4CCC(C(=O)NCCCCCCN(C)C)CC4)nnc(C)c3c2C)cc1 [compound 38, 1-(3,4-dimethyl-2-(p-tolyl)-2H-pyrazolo[3,4-d]pyridazin-7-yl)-N-(6-(dimethylamino)hexyl)piperidine-4-carboxamide] | 40 | ≥ 20000 | – | – | –
Cc1nnc(N2CCC(C(=O)NCCCN(C)C)CC2)c2nn(C(C)C)c(C)c12 [compound 27, N-(3-(dimethylamino)propyl)-1-(2-isopropyl-3,4-dimethyl-2H-pyrazolo[3,4-d]pyridazin-7-yl)piperidine-4-carboxamide] | > 10000 | ≥ 20000 | – | – | –
Cc1ccc(-n2cc3cnnc(N4CCC(CCC(=O)NCCN(C)C)CC4)c3n2)cc1 [compound 61, N-(2-(dimethylamino)ethyl)-3-(1-(2-(p-tolyl)-2H-pyrazolo[3,4-d]pyridazin-7-yl)piperidin-4-yl)propanamide] | 9 | 4850 | – | – | –
Cc1ccc(-n2nc3c(N4CCC(C(=O)NCCCN(C)C)CC4)nncc3c2C)cc1 [compound 42, N-(3-(dimethylamino)propyl)-1-(3-methyl-2-(p-tolyl)-2H-pyrazolo[3,4-d]pyridazin-7-yl)piperidine-4-carboxamide] | 133 | ≥ 20000 | – | – | –
Cc1ccc(-n2nc3c(N4CCC(C(=O)NCCCN(C)C)CC4)nnc(Cl)c3c2C)cc1 [compound 36, 1-(4-chloro-3-methyl-2-(p-tolyl)-2H-pyrazolo[3,4-d]pyridazin-7-yl)-N-(3-(dimethylamino)propyl)piperidine-4-carboxamide] | 1150 | 7680 | – | – | –
Cc1ccc(-n2nc3c(N4CCC(C(=O)NCCCN5CCC5)CC4)nnc(C)c3c2C)cc1 [Compound No. 11, N-(3-(azetidin-1-yl)propyl)-1-(3,4-dimethyl-2-(p-tolyl)-2H-pyrazolo[3,4-d]pyridazin-7-yl)piperidine-4-carboxamide] | 379 | > 10000 | > 10000 | – | –
CCN1CCCC1CNC(=O)C1CCN(c2nnc(C)c3c(C)n(-c4ccccc4)nc23)CC1 (stereo not drawn) [33x, 1-(3,4-dimethyl-2-phenyl-2H-pyrazolo[3,4-d]pyridazin-7-yl)-N-((1-ethylpyrrolidin-2-yl)methyl)piperidine-4-carboxamide] | 70 | > 10000 | > 10000 | – | –
Cc1nnc(N2CCC(C(=O)NCCCN(C)C)CC2)c2nn(-c3ccsc3)c(C)c12 [compound 24, 1-(3,4-dimethyl-2-(thiophen-3-yl)-2H-pyrazolo[3,4-d]pyridazin-7-yl)-N-(3-(dimethylamino)propyl)piperidine-4-carboxamide] | 400 | ≥ 20000 | – | – | –
Cc1ccc(-n2nc3c(N4CCC(C(=O)N5CCC(N(C)C)C5)CC4)nnc(C)c3c2C)cc1 (stereo not drawn) [compound 44, (1-(3,4-dimethyl-2-(p-tolyl)-2H-pyrazolo[3,4-d]pyridazin-7-yl)piperidin-4-yl)(3-(dimethylamino)pyrrolidin-1-yl)methanone] | 202 | ≥ 20000 | – | – | –
Cc1nnc(N2CCC(C(=O)NCCN3CCOCC3)CC2)c2nn(-c3ccccc3)c(C)c12 [32x, 1-(3,4-dimethyl-2-phenyl-2H-pyrazolo[3,4-d]pyridazin-7-yl)-N-(2-morpholinoethyl)piperidine-4-carboxamide] | 341 | > 10000 | > 10000 | – | –
CCN1CCN(C(=O)C2CCN(c3nnc(C)c4c(C)n(-c5ccc(C)cc5)nc34)CC2)CC1 [51x, (1-(3,4-dimethyl-2-(p-tolyl)-2H-pyrazolo[3,4-d]pyridazin-7-yl)piperidin-4-yl)(4-ethylpiperazin-1-yl)methanone] | 6 | 230 | 330 | inhibit | inhibit
Cc1nnc(N2CCC(C(=O)NCCCN3CCN(C)CC3)CC2)c2nn(-c3ccccc3)c(C)c12 [31x, 1-(3,4-dimethyl-2-phenyl-2H-pyrazolo[3,4-d]pyridazin-7-yl)-N-(3-(4-methylpiperazin-1-yl)propyl)piperidine-4-carboxamide] | 211 | > 10000 | > 10000 | – | –
Cc1ccc(-n2nc3c(N4CCC(C(=O)NCCCN(C)C)CC4)nnc(C)c3c2-c2ccccc2)cc1 [compound 34, N-(3-(dimethylamino)propyl)-1-(4-methyl-3-phenyl-2-(p-tolyl)-2H-pyrazolo[3,4-d]pyridazin-7-yl)piperidine-4-carboxamide] | 251 | ≥ 20000 | – | – | –
Cc1ccc(-n2nc3c(N4CCC(C(=O)N5CCC6(CNC6)C5)CC4)nnc(C)c3c2C)cc1 [compound 74, (1-(3,4-dimethyl-2-(p-tolyl)-2H-pyrazolo[3,4-d]pyridazin-7-yl)piperidin-4-yl)(2,6-diazaspiro[3.4]octan-6-yl)methanone] | 2590 | ≥ 20000 | – | – | –
Cc1ccc(-n2nc3c(N4CCC(C(=O)NCCCCN(C)C)CC4)nnc(C)c3c2C)cc1 [compound 31, 1-(3,4-dimethyl-2-(p-tolyl)-2H-pyrazolo[3,4-d]pyridazin-7-yl)-N-(4-(dimethylamino)butyl)piperidine-4-carboxamide] | 86 | 2680 | – | – | –
Cc1ccc(-n2nc3c(N4CCC(C(=O)NCCCN(C)C)C4)nnc(C)c3c2C)cc1 (stereo not drawn) [compound 13, 1-(3,4-dimethyl-2-(p-tolyl)-2H-pyrazolo[3,4-d]pyridazin-7-yl)-N-(3-(dimethylamino)propyl)pyrrolidine-3-carboxamide] | 292 | > 10000 | > 10000 | – | –
Cc1ccc(-n2nc3c(N4CCC(C(=O)NCCCN5CCCC5)CC4)nnc(C)c3c2C)cc1 [15x, 1-(3,4-dimethyl-2-(p-tolyl)-2H-pyrazolo[3,4-d]pyridazin-7-yl)-N-(3-(pyrrolidin-1-yl)propyl)piperidine-4-carboxamide] | 408 | 4600 | – | – | –
Cc1ccc(-n2nc3c(N4CCC(C(=O)NCCCCCN(C)C)CC4)nnc(C)c3c2C)cc1 [compound 32, 1-(3,4-dimethyl-2-(p-tolyl)-2H-pyrazolo[3,4-d]pyridazin-7-yl)-N-(5-(dimethylamino)pentyl)piperidine-4-carboxamide] | 55 | > 10000 | > 10000 | – | –
